Source: patent publication US5225436A, “Aryl substituted naphthalene derivatives” (Schering Corporation, priority 1991, dated 1993)
Where two headings read alike, the source gives them in different places.

How the values were obtained:
[1] = system: SRS-A / leukotriene release from antigen-challenged, sensitized guinea pig lung; test: Inhibition of SRS-A (leukotriene) release from antigen-challenged, sensitized guinea pig lung; type: cell-based; parameters: inhibition: dose or concentration left out as unconfirmed; conditions: Cavia porcellus; for inhibition: Dose 30 μm (μM)
Description: The anti-allergy method of this invention is identified by tests which measure a compound's inhibition of leukotriene release in sensitized guinea pigs. Sensitized guinea pigs are killed by a blow to the head and the lungs removed and cleaned of visible connective tissue, trachea and large blood vessels. The lungs from individual animals are sliced into fragments approximately 1 mm in thickness using a McIlwain tissue chopper and then washed with oxygenated Tyrode's buffer. Weighed aliquots (approximately 400 mg wet weight) of lung are transferred into vials containing 2 ml of fresh Tyrode's solution (containing 10 mM cysteine) and incubated in the presence or absence of test compound for 12 min at 37° C. The tissues are then challenged with 20 μg ovalbumin/ml (final concentration) and incubated for 15 min. To measure leukotriene release, an aliquot of supernatant fluid is extracted with 4 volumes of 100% ethanol. After removal of the precipitated protein, the clear fluid is dried under a stream of N2 gas. The leukotriene content is measured by a radioimmunoassay using [^3 H]LTC4 and antiserum obtained from New England Nuclear. The cross-reactivity of the antiserum for LTD4 is 55%. Percent inhibition of lekotriene release is calculated by comparing for each lung the release in the presence of the test compound to that in the absence of test compound. Representative compounds of the invention at a relative dose of 50 μM of tissue are found to inhibit leukotriene release in the test procedure as indicated below in Table 1: […]

5-lipoxygenase [2] = molecular target: T1, 5-lipoxygenase (Homo sapiens, UniProt P09917); test: 5-Lipoxygenase assay with human neutrophils; type: cell-based; conditions: 5 min, Human PMN, dose 15 μm (μM)
T1 construct: Human polymorphonuclear leukocytes (neutrophils) were obtained from normal healthy volunteers; endogenous in cells; host or cells: human blood neutrophils from healthy volunteers
T1 sequence (P09917 1-674): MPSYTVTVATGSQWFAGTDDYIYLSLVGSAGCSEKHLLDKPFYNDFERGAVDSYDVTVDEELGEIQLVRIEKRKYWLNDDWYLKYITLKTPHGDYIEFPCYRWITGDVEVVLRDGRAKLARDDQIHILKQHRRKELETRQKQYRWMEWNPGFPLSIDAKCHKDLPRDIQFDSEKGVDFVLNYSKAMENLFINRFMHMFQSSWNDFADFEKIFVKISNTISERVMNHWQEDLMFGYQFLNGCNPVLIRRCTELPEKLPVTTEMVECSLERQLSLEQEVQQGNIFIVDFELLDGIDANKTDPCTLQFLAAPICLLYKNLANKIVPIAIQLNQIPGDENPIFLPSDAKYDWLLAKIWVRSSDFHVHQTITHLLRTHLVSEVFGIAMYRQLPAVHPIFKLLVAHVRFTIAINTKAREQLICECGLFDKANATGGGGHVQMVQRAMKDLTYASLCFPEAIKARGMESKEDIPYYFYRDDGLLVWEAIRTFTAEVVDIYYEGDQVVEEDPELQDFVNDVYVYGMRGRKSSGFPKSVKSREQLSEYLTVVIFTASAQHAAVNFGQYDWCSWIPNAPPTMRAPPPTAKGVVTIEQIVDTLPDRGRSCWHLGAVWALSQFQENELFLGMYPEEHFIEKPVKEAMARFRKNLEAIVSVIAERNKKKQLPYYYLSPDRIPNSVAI

[3] = system: anaphylactic bronchospasm (antigen-induced SRS-A mediated bronchoconstriction); test: Inhibition of anaphylactic bronchospasm in sensitized guinea pigs; type: in vivo, guinea pig; conditions: Cavia porcellus, iv, 0.25 h; for inhibition in vivo at 10 mg/kg: Dose 10 mpk, read-out: % Inhibition of anaphylactic bronchospasm; for inhibition in vivo at 3 mg/kg: Dose 3 mpk
Method: The anti-allergy method of this invention is identified by tests which measure a compound's inhibition of anaphylactic bronchospams-in sensitized guinea pigs having antigen-induced SRS-A mediated bronchoconstriction. Allergic bronchospams was measured in actively sensitized guinea pigs by a modification of the procedure of Konzett and Rossler, Arch. Exptl. Pathol. Pharmakol., 194, pp. 71-74 (1940). Male Hartley guinea pigs were sensitized with 5 mg ovalbumin injected ip and 5 mg injected sc in 1 ml saline on day 1 and 5 mg ovalbumin injected ip on day 4. The sensitized animals were used 3-4 weeks later. To measure anaphylactic bronchospasm, sensitized guinea pigs were fasted overnight and the following morning were anesthetized with 0.9 ml/kp ip dialurethane. The trachea and jugular vein were cannulated and the animals were ventilated by a Harvard rodent respirator. A side arm to the tracheal cannula was connected to a Harvard pressure transducer to obtain a continuous measure of intratracheal pressure. An increase in intratracheal pressure was taken as a measure of bronchoconstriction. Each guinea pig was injected iv with 1 mg/kg propranolol, 5 mg/kg indomethacin and 2 mg/kg mepyramine given together in a volume of […]. Fifteen minutes later, the animals were challenged with antigen (0.5 percent ovalbumin) delivered as an aerosol generated from a DeVilbiss Model 65 ultrasonic nebulizer and delivered through the tracheal cannula for 30 seconds. Bronchoconstriction was measured as the peak increase in intratracheal pressure occurring within 15 minutes after antigen challenge.

5-lipoxygenase [4] = molecular target: T2, 5-lipoxygenase (Mus musculus, UniProt P48999); test: 5-Lipoxygenase assay (murine mast cell clone MC-9); type: cell-based; conditions: MC9, 5 min, MC-9 cell
T2 construct: The IL-3-dependent murine mast cell clone, MC-9, was used to test the effects; endogenous in cells; host or cells: MC-9 (IL-3-dependent murine mast cell clone)
T2 sequence (P48999 1-674): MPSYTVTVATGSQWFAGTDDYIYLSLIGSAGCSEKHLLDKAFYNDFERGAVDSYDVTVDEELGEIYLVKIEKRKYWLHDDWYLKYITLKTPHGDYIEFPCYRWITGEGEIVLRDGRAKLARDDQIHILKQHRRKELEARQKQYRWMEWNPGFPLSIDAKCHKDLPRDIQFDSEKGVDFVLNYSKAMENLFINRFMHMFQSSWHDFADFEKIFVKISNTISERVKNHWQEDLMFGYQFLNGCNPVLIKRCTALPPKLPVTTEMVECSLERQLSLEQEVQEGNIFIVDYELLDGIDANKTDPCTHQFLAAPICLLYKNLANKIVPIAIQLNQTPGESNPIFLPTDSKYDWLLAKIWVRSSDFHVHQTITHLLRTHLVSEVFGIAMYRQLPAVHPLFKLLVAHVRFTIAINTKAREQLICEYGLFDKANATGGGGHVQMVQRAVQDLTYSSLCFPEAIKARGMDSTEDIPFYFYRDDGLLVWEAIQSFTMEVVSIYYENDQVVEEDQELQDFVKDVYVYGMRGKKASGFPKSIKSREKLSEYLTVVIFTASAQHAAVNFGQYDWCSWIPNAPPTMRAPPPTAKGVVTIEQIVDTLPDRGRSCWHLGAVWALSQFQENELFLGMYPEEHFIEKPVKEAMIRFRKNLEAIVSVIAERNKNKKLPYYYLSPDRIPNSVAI
Method: The IL-3-dependent murine mast cell clone, MC-9, was used to test the effects of representative compounds of the invention on lipoxygenase activity. The MC-9 cell line was grown in suspension culture (0.4 to 1.2×10^6 cells/ml) in RPMI 1640 medium (Gibco) with 10% fetal bovine serum (Hyclone) and 2-5% conconavalin-A conditioned supernatant (Musch et. al., (1985) Prostagandins 29, 405-4307. Cells were harvested, washed twice by centrifugation, and resuspended in a Ca^++ -free HEPES buffer (25 mM HEPES, 125 mM NaCl, 2.5 mM KCl 0.7 mM MgCl2, 0.5 mM EGTA and 10 mM glucose at pH 7.4).
MC-9 cells (0.39 ml at 7.5×10^6 cells/ml) were preincubated with dimethylsulfoxide (DMSO) vehicle with or without test compound (1 ul) for 4 minutes then incubated for 5 minutes with [^14 C] arachidonic acid (Amersham, 59 Ci/mole) at a 9 uM final concentration, and A23187 (Calbiochem) at a 1 uM final concentration was added in 10 ul of water:ethanol (9:1). The reaction was stopped by addition of methanol (0.4 ml), and cellular debris was removed by centrifugation. Aliquots (250 ul) of the incubations were run on a Waters two pump HPLC system fitted with a Waters C18, 10 u 8×100 mm u-Bondapak radial compression column and C18 "Guard Pak". The column was initially eluted at 3 ml/min with water:methanol:acetic acid (67:33:0.08) containing 1 mM EDTA adjusted to pH 6.0 with ammonium hydroxide (Pump A). At 4 minutes, a linear gradient to reach 100% methanol (Pump B) at 9 minutes was established. Between 13 and 14 minutes, methanol was exchanged for the initial eluting solvent and by 19 minutes the column had been reequilibrated for the next sample. The effluent was analyzed by a continuous flow radioactivity monitor (model ROMONA-D) interfaced with a Hewlett Packard Lab Automation System for quantitation of radioactive products. These were predominantly leukotriene C4 (LTC4) which eluted at 6 minutes, and 5-hydroxyeicosatetraenoic acid (5-HETE) which eluted at 11 minutes (Musch et. al., supra).

Row | SMILES | inhibition [1] | inhibition at 15 µM (5-lipoxygenase [2]; read-out: % Inhibition 5-HETE) | inhibition at 15 µM (5-lipoxygenase [2]; read-out: % Inhibition LTB) | inhibition in vivo at 10 mg/kg [3] | other results
1 | COc1cc(OC)c2c(c1)C(C)(C)C(c1ccc(OC)c(OC)c1)=CC2=NO | 0% | 0% | 9% | 0% | 
2 | COc1cc(OC)c2c(c1)C(C)(C)C(c1ccc(OC)c(OC)c1)CC2=NO (stereo not shown) |  |  |  | 50% | inhibition at 10 µM [1]: 35%; inhibition at 50 µM [1]: 75%; inhibition at 1 µM (5-lipoxygenase [4]; read-out: % Inhibition 5-HETE): 28%; inhibition at 1 µM (5-lipoxygenase [4]; read-out: % Inhibition LTC4): 26%; inhibition at 5 µM (5-lipoxygenase [4]; read-out: % Inhibition 5-HETE): 100%; inhibition at 5 µM (5-lipoxygenase [4]; read-out: % Inhibition LTC4): 65%
3 | COc1cc(OC)c2c(c1)C(C)(C)C(c1ccc(OC)c(OC)c1)CC(=O)C2 (stereo not shown) [drawing 89 [X=CH2; R3/R4=O; P=OCH3]] | 47% | 87% | 97% | 0% | 
4 | COc1cc(OC)c2c(c1)C(C)(C)C(c1ccc(OC)c(OC)c1)CCC2=NO (stereo not shown) [drawing 90 [X=NOH; W=H; J=H]] | 58% | 2% |  | 10% | 
5 | COc1cc(OC)c2c(c1)C(C)(C)C(c1ccc(OC)c(OC)c1)CC(=O)N2 (stereo not shown) [drawing 89 [X=NH; R3/R4=O; P=OCH3]] | 65% | 0% | 2% |  | inhibition in vivo at 3 mg/kg [3]: 20%
6 | CC(=O)Oc1cc(OC(C)=O)c2c(c1)C(C)(C)C(c1ccc(OC(C)=O)c(OC(C)=O)c1)=CC2=O [3-(3,4-diacetyloxyphenyl)-6,8-diacetyloxy-4,4-dimethyl-1(4H)-naphthalenone] |  |  |  | 7% | inhibition at 50 µM [1]: 48%; inhibition at 5 µM (5-lipoxygenase [4]; read-out: % Inhibition 5-HETE): 53%; inhibition at 5 µM (5-lipoxygenase [4]; read-out: % Inhibition LTC4): 43%
7 | COc1ccc2c(c1)C(C)(C)C(c1ccc(OC)c(OC)c1)CCN2 (stereo not shown) [drawing 89 [X=NH; R3/R4=H,H; P=H]] | 57% | 73% |  | 42% | 
8 | COc1cc(OC)c2c(c1)C(C)(C)C(c1ccc(OC)c(OC)c1)CCN2 (stereo not shown) [drawing 89 [X=NH; R3/R4=H,H; P=OCH3]] | 45% | 39% | 63% | 34% | 
9 | COc1cc(OC)c2c(c1)C(C)(C)C(c1ccc(OC)c(OC)c1)CC(=NO)C2 (stereo not shown) [drawing 89 [X=CH2; R3/R4=NOH; P=OCH3]] | 46% | 87% |  |  | inhibition in vivo at 3 mg/kg [3]: 0%
10 | COc1cc(OC)c2c(c1)C(C)(C)C(c1ccc(OC)c(OC)c1)=C(C)C2=O |  | 1% | 0% | 24% | inhibition at 10 µM [1]: 20%
11 | COc1cc(OC)c2c(c1)C(C)(C)C(c1ccc(OC)c(OC)c1)CC(C)C2=O (stereo not shown) [drawing 90 [X=O; W=H; J=CH3]] | 61% | 28% |  | 53% | 
12 | COc1cc(OC)c2c(c1)C(C)(C)C(c1ccc(OC)c(OC)c1)=CC2=O |  |  |  | 36% | inhibition at 50 µM [1]: 55%; inhibition at 5 µM (5-lipoxygenase [4]; read-out: % Inhibition 5-HETE): 9%; inhibition at 5 µM (5-lipoxygenase [4]; read-out: % Inhibition LTC4): 17%; inhibition at 50 µM (5-lipoxygenase [4]; read-out: % Inhibition 5-HETE): 95%; inhibition at 50 µM (5-lipoxygenase [4]; read-out: % Inhibition LTC4): 100%
13 | COc1cc(OC)c2c(c1)C(C)(C)C(c1ccc(OC)c(OC)c1)CC(=O)O2 (stereo not shown) [drawing 89 [X=O; R3/R4=O; P=OCH3]] | 59% | 9% |  | 4% | 
